Laboratory results from patent US20220323406A1, “METHODS AND COMPOSITIONS FOR DIFFERENTIATING STEM CELLS” (Massachusetts Institute of Technology, priority 2019, published 2022).

What was measured:
[1] = tested on: ENR+CD organoids (ISC to Paneth cell differentiation); assay: Primary screen: CCh-stimulated lysozyme secretion LYZ.S, 2.5-D 384-well ENR+CD organoid differentiation; type: cell-based, mouse; settings: primary screen
Source text: (§1) High-throughput screening.

ENR+CD organoids = assay: Primary screen: ATP (CellTiter-Glo 3D, CTG) cell number/viability, 2.5-D 384-well ENR+CD organoids; settings: primary screen; for Z.CTG: standard z score;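 on all read-outs here: compounds given at plating and again on day 3 over a 6-day differentiation from ENR+CV stem-cell-enriched precursors, ATP measured on day 6, plate median as control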
[2] = tested on: ENR+CD organoids (ISC to Paneth cell differentiation); assay: Primary screen: basal (non-stimulated) lysozyme secretion LYZ.NS, 2.5-D 384-well ENR+CD organoid differentiation; type: cell-based, mouse
Source text: as §1

[3] = dose 0.08 uM, FC vs plate median
[4] = dose 0.40 uM, FC vs plate median
[5] = dose 2.00 uM, FC vs plate median
[6] = dose 10.00 uM, FC vs plate median
[7] = primary screen, dose 0.08 uM, standard z score
[8] = primary screen, dose 0.40 uM, standard z score
[9] = primary screen, dose 2.00 uM, standard z score
[10] = primary screen, dose 10.00 uM, standard z score
[11] = dose 0.08 uM, FC relative to plate median
[12] = dose 0.40 uM, FC relative to plate median
[13] = dose 2.00 uM, FC relative to plate median
[14] = dose 10.00 uM, FC relative to plate median

Compound	Z.CTG (ENR+CD organoids; dose 0.08 uM)	Z.CTG (ENR+CD organoids; dose 0.40 uM)	Z.CTG (ENR+CD organoids; dose 2.00 uM)	Z.CTG (ENR+CD organoids; dose 10.00 uM)	Z.LYZ.NS [2, 7]	Z.LYZ.NS [2, 8]	Z.LYZ.NS [2, 9]	Z.LYZ.NS [2, 10]	Dose.FC.LYZ.S ([1]; dose 0.08 uM)	Dose.FC.LYZ.S ([1]; dose 0.40 uM)	Dose.FC.LYZ.S ([1]; dose 2.00 uM)	Dose.FC.LYZ.S ([1]; dose 10.00 uM)	Dose.FC.CTG (ENR+CD organoids; dose 0.08 uM)	Dose.FC.CTG (ENR+CD organoids; dose 0.40 uM)	Dose.FC.CTG (ENR+CD organoids; dose 2.00 uM)	Dose.FC.CTG (ENR+CD organoids; dose 10.00 uM)	Dose.FC.LYZ.NS ([2]; primary screen, dose 0.08 uM)	Dose.FC.LYZ.NS ([2]; primary screen, dose 0.40 uM)	Dose.FC.LYZ.NS ([2]; primary screen, dose 2.00 uM)	Dose.FC.LYZ.NS ([2]; primary screen, dose 10.00 uM)	further results
CCN(CC)CCCC(C)Nc1nc(C)cc(Nc2ccc3nc(C)cc(N)c3c2)n1 (stereo not drawn) [NSC 23766]	0.103	0.406	0.279	0.774	0.701	0.380	0.506	0.080													Dose.FC.LYZ.S [1, 3]: 0.080 log2 fold change; Dose.FC.LYZ.S [1, 4]: 0.090 log2 fold change; Dose.FC.LYZ.S [1, 5]: 0.031 log2 fold change; Dose.FC.LYZ.S [1, 6]: 0.030 log2 fold change; Dose.FC.CTG (ENR+CD organoids; [3]): 0.043 log2 fold change; Dose.FC.CTG (ENR+CD organoids; [4]): 0.170 log2 fold change; Dose.FC.CTG (ENR+CD organoids; [5]): 0.117 log2 fold change; Dose.FC.CTG (ENR+CD organoids; [6]): 0.324 log2 fold change; Dose.FC.LYZ.NS ([2]; primary screen; dose 0.08 uM; FC vs plate median): 0.081 log2 fold change; Dose.FC.LYZ.NS ([2]; primary screen; dose 0.40 uM; FC vs plate median): 0.044 log2 fold change; Dose.FC.LYZ.NS ([2]; primary screen; dose 2.00 uM; FC vs plate median): 0.058 log2 fold change; Dose.FC.LYZ.NS ([2]; primary screen; dose 10.00 uM; FC vs plate median): 0.009 log2 fold change
CCOc1ccccc1-n1c(C(C)N2CCN(C(=O)COc3ccc(Cl)cc3)CC2)nc2ccccc2c1=O (stereo not drawn) [Erastin]									0.170 log2 fold change	0.160 log2 fold change	0.106 log2 fold change	0.039 log2 fold change	0.225 log2 fold change	0.285 log2 fold change	0.380 log2 fold change	0.298 log2 fold change	0.157 log2 fold change	0.158 log2 fold change	0.157 log2 fold change	−0.015 log2 fold change	Z.LYZ.NS ([2]; primary screen, standard z score, dose 0.08 uM): 1.368; Z.LYZ.NS ([2]; primary screen, standard z score, dose 0.40 uM): 1.375; Z.LYZ.NS ([2]; primary screen, standard z score, dose 2.00 uM): 1.367; Z.LYZ.NS ([2]; primary screen, standard z score, dose 10.00 uM): −0.133
C[C@@H](O[C@H]1OCCN(Cc2n[nH]c(=O)[nH]2)[C@H]1c1ccc(F)cc1)c1cc(C(F)(F)F)cc(C(F)(F)F)c1 [Aprepitant]									0.115 log2 fold change	0.107 log2 fold change	−0.007 log2 fold change	−0.119 log2 fold change	0.313 log2 fold change	0.403 log2 fold change	0.145 log2 fold change	0.051 log2 fold change	0.097 log2 fold change	0.061 log2 fold change	0.005 log2 fold change	−0.090 log2 fold change	Z.LYZ.NS (standard z score) ([2]; primary screen, dose 0.08 uM): 0.840; Z.LYZ.NS (standard z score) ([2]; primary screen, dose 0.40 uM): 0.532; Z.LYZ.NS (standard z score) ([2]; primary screen, dose 2.00 uM): 0.043; Z.LYZ.NS (standard z score) ([2]; primary screen, dose 10.00 uM): −0.780
O=C1NC(=O)C(c2ccccc2[N+](=O)[O-])=C1Nc1ccc(O)c(Cl)c1 [SB415286]	0.527	−0.011	−0.231	0.293	1.262	0.101	1.024	−0.136													Dose.FC.LYZ.S [1, 11]: 0.159 log2 fold change; Dose.FC.LYZ.S [1, 12]: −0.008 log2 fold change; Dose.FC.LYZ.S [1, 13]: −0.053 log2 fold change; Dose.FC.LYZ.S [1, 14]: −0.042 log2 fold change; Dose.FC.CTG (ENR+CD organoids; [11]): 0.221 log2 fold change; Dose.FC.CTG (ENR+CD organoids; [12]): −0.004 log2 fold change; Dose.FC.CTG (ENR+CD organoids; [13]): −0.097 log2 fold change; Dose.FC.CTG (ENR+CD organoids; [14]): 0.123 log2 fold change; Dose.FC.LYZ.NS ([2]; primary screen, dose 0.08 uM, FC relative to plate median): 0.145 log2 fold change; Dose.FC.LYZ.NS ([2]; primary screen, dose 0.40 uM, FC relative to plate median): 0.012 log2 fold change; Dose.FC.LYZ.NS ([2]; primary screen, dose 2.00 uM, FC relative to plate median): 0.118 log2 fold change; Dose.FC.LYZ.NS ([2]; primary screen, dose 10.00 uM, FC relative to plate median): −0.016 log2 fold change
